Measured values as given in US9415027B2, “Therapeutic agents” (Allergan, Inc., priority 2013, dated 2016).

How the values were obtained:
[1] = biological target: T1, EP2 (Homo sapiens, UniProt P43116); assay: EP2 binding study; conditions: read-out: EP2 Data (EC50 in nM) Ki
Protocol: (§1) Data from running binding and activity studies on the compounds of the invention were carried out as described in U.S. Pat. No. 7,427,685, the contents of which are incorporated herein by reference.

[2] = biological target: T2, EP4 (Homo sapiens, UniProt P35408); assay: EP4 cAMP activity study; assay type: cell-based
Protocol: as §1

[3] = biological target: T2, EP4; assay: EP4 binding study; conditions: read-out: EP4 data (EC50 in nM) KI
Protocol: as §1

[4] = biological target: T1, EP2; assay: EP2 cAMP activity study; assay type: cell-based
Protocol: as §1

[5] = biological target: T3, hEP3A (Homo sapiens, UniProt P43115); assay: Other receptors activity, hEP3A; assay type: cell-based
T3 sequence (P43115 1-390): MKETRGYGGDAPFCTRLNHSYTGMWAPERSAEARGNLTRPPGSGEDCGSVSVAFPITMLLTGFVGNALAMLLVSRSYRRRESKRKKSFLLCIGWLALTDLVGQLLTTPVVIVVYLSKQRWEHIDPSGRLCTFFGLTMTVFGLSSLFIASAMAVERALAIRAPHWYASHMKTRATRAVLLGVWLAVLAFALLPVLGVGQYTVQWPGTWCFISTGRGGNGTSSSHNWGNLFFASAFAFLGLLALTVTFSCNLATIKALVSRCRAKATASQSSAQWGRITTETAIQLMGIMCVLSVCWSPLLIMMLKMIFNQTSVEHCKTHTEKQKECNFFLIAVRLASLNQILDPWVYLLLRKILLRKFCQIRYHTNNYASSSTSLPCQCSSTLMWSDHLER
Protocol: as §1

T1 sequence (P43116 whole entry): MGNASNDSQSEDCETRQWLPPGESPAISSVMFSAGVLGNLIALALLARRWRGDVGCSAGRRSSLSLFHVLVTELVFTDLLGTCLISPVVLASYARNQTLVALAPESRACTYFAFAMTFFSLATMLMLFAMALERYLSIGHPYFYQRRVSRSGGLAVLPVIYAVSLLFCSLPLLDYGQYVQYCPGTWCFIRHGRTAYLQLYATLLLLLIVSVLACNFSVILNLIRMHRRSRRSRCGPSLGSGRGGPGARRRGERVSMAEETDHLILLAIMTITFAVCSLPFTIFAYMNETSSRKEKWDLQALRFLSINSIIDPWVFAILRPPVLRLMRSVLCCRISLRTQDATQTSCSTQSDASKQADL
T2 sequence (P35408 whole entry): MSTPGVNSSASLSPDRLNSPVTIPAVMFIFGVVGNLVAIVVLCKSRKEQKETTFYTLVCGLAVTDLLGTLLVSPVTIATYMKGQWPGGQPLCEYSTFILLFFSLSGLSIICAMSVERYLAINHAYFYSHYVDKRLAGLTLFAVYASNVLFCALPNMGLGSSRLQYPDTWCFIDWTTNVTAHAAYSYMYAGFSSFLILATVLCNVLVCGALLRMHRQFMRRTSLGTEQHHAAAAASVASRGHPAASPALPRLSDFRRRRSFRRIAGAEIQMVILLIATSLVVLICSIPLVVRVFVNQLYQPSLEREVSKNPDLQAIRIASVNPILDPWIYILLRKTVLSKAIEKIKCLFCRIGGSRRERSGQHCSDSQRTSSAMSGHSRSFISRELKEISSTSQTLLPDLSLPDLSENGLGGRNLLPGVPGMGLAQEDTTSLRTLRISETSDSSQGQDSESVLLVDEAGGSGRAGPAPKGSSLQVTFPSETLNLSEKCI

In the case of `COc1cccc(-c2cccc3c2CC(Cc2ccc(C(=O)O)cc2)C3=O)c1` (stereo not drawn) [Example 11, 4-((4-(3-Methoxyphenyl)-1-oxo-2,3-dihydro-1H-inden-2-yl)methyl)benzoic acid], the Ki [1] is reported as 333 nM, the EC50 [2] is reported as 186 nM and the Ki [3] is reported as 525 nM.
`Cc1cccc(-c2cccc3c2CC(Cc2ccc(C(=O)O)cc2)C3=O)c1` (stereo not drawn) [Example 12, 4-((1-Oxo-4-(m-tolyl)-2,3-dihydro-1H-inden-2-yl)methyl)benzoic acid] showed an EC50 [4] of 217 nM, a Ki [1] of 191 nM and an EC50 [2] of 1170 nM. For the same compound, the Ki [3] was 610 nM.
In the case of `O=C(O)c1ccc(CC2Cc3c(cccc3-c3ccc4ccccc4c3)C2=O)cc1` (stereo not drawn) [Example 5, 4-((4-(Naphthalen-2-yl)-1-oxo-2,3-dihydro-1H-inden-2-yl)methyl)benzoic acid], the EC50 [4] is reported as 40 nM, the Ki [1] is reported as 61 nM and the EC50 [2] is reported as greater than 10000 nM. For the same compound, the Ki [3] was 1190 nM.
In the case of `O=C(O)c1ccc(CC2Cc3c(cccc3-c3ccc(Cl)c(C(F)(F)F)c3)C2=O)cc1` (stereo not drawn) [Example 10, 4-((4-(4-Chloro-3-(trifluoromethyl)phenyl)-1-oxo-2,3-dihydro-1H-inden-2-yl)methyl)benzoic acid], the EC50 [4] is reported as 1 nM, the Ki [1] is reported as 3 nM and the EC50 [2] is reported as 1090 nM. It also gave a Ki [3] of 1350 nM.
`O=C(O)c1ccc(CC2Cc3c(cccc3-c3cc(C(F)(F)F)cc(C(F)(F)F)c3)C2=O)cc1` (stereo not drawn) [Example 9, 4-((4-(3,5-Bis(trifluoromethyl)phenyl)-1-oxo-2,3-dihydro-1H-inden-2-yl)methyl)benzoic acid] gave an EC50 [4] of 5 nM, a Ki [1] of 9 nM and an EC50 [2] of 1630 nM. It also gave a Ki [3] of 1780 nM.
`O=C(O)c1ccc(CC2Cc3c(cccc3-c3cccc4ccccc34)C2=O)cc1` (stereo not drawn) [Example 4, 4-((4-(Naphthalen-1-yl)-1-oxo-2,3-dihydro-1H-inden-2-yl)methyl)benzoic acid] was tested, and the Ki [1] was 2080 nM, the EC50 [2] was 1240 nM and the Ki [3] was 1280 nM.
`O=C(O)c1ccc(CC2CCc3c(cccc3-c3cccc(C(F)(F)F)c3)C2=O)cc1` (stereo not drawn) [Example 1, 4-((1-Oxo-5-(3-(trifluoromethyl)phenyl)-1,2,3,4-tetrahydronaphthalen-2-yl)methyl)benzoic acid] showed an EC50 [4] of 6 nM, a Ki [1] of 70 nM and an EC50 [2] of 196 nM. The Ki [3] was 149 nM.
Compound `O=C(O)c1ccc(CC2Cc3c(cccc3-c3cccc(Cl)c3)C2=O)s1` (stereo not drawn) [Example 16, 5-((4-(3-Chlorophenyl)-1-oxo-2,3-dihydro-1H-inden-2-yl)methyl)thiophene-2-carboxylic acid] has an EC50 [4] of 62 nM, a Ki [1] of 199 nM and an EC50 [2] of 300 nM. For the same compound, the Ki [3] was 505 nM.
`O=C(O)c1ccc(CC2Cc3c(cccc3-c3cccc(C(F)(F)F)c3)C2=O)cc1` (stereo not drawn) [Example 2, 4-((1-Oxo-4-(3-(trifluoromethyl)phenyl)-2,3-dihydro-1H-inden-2-yl)methyl)benzoic acid] gave an EC50 [4] of 1 nM, a Ki [1] of 56 nM and an EC50 [2] of 108 nM. For the same compound, the Ki [3] was 18 nM.
In the case of `O=C(O)c1cc(CC2Cc3c(cccc3-c3cccc(C(F)(F)F)c3)C2=O)cs1` (stereo not drawn) [Example 17, 4-((1-Oxo-4-(3-(trifluoromethyl)phenyl)-2,3-dihydro-1H-inden-2-yl)methyl)thiophene-2-carboxylic acid], the EC50 [4] is reported as 695 nM, the Ki [1] is reported as 674 nM and the EC50 [2] is reported as greater than 10000 nM. It also gave a Ki [3] of 7 nM.
In the case of `O=C(O)c1ccc(CC2Cc3c(cccc3-c3cccc(C(F)(F)F)c3)C2=O)s1` (stereo not drawn) [Example 15, 5-((1-Oxo-4-(3-(trifluoromethyl)phenyl)-2,3-dihydro-1H-inden-2-yl)methyl)thiophene-2-carboxylic acid], the EC50 [4] is reported as 11 nM, the Ki [1] is reported as 131 nM and the EC50 [2] is reported as 54 nM. For the same compound, the EC50 [5] was greater than 10000 nM and the Ki [3] was 137 nM.
With `O=C(O)c1csc(CC2Cc3c(cccc3-c3cccc(C(F)(F)F)c3)C2=O)c1` (stereo not drawn) [Example 18, 5-((1-Oxo-4-(3-(trifluoromethyl)phenyl)-2,3-dihydro-1H-inden-2-yl)methyl)thiophene-3-carboxylic acid] the EC50 [4] was 179 nM, the Ki [1] was 96 nM and the EC50 [2] was 4970 nM. It also gave a Ki [3] of 5 nM.
For `O=C(O)c1cccc(CC2Cc3c(cccc3-c3cccc(C(F)(F)F)c3)C2=O)c1` (stereo not drawn) [Example 19, 3-((1-Oxo-4-(3-(trifluoromethyl)phenyl)-2,3-dihydro-1H-inden-2-yl)methyl)benzoic acid], the Ki [1] was 6760 nM, the EC50 [2] was 1470 nM and the Ki [3] was 2740 nM.
Work on `O=C(O)c1ccc(CC2Cc3c(cccc3-c3ccccc3)C2=O)cc1` (stereo not drawn) [Example 13, 4-((1-Oxo-4-phenyl-2,3-dihydro-1H-inden-2-yl)methyl)benzoic acid] yielded a Ki [1] of 1140 nM, an EC50 [2] of 2440 nM and a Ki [3] of 1010 nM.
`O=C(O)c1ccc(CC2Cc3c(cccc3-c3cccc(Cl)c3)C2=O)cc1` (stereo not drawn) [Example 3, 4-((4-(3-Chlorophenyl)-1-oxo-2,3-dihydro-1H-inden-2-yl)methyl)benzoic acid] showed an EC50 [4] of 26 nM, a Ki [1] of 130 nM and an EC50 [2] of 1070 nM. For the same compound, the Ki [3] was 954 nM.
Work on `O=C(O)c1ccc(CC2Cc3c(cccc3-c3ccc(C(F)(F)F)cc3)C2=O)cc1` (stereo not drawn) [Example 6, 4-((1-Oxo-4-(4-(trifluoromethyl)phenyl)-2,3-dihydro-1H-inden-2-yl)methyl)benzoic acid] yielded a Ki [1] of 338 nM, an EC50 [2] greater than 10000 nM and a Ki [3] of 4450 nM.
`COc1cc(OC)cc(-c2cccc3c2CC(Cc2ccc(C(=O)O)cc2)C3=O)c1` (stereo not drawn) [Example 21] gave an EC50 [4] of 79 nM, a Ki [1] of 241 nM and an EC50 [2] of 874 nM. The Ki [3] was 486 nM.
`COc1ccc(-c2cccc(C(F)(F)F)c2)c2c1C(=O)C(Cc1ccc(C(=O)O)cc1)C2` (stereo not drawn) [Example 20, 4-((7-Methoxy-1-oxo-4-(3-(trifluoromethyl)phenyl)-2,3-dihydro-1H-inden-2-yl)methyl)benzoic acid] gave a Ki [1] of 7360 nM, an EC50 [2] greater than 10000 nM and a Ki [3] of 954 nM.
For `O=C(O)c1ccc(CC2Cc3c(cccc3-c3ccccc3C(F)(F)F)C2=O)cc1` (stereo not drawn) [Example 7, 4-((1-Oxo-4-(2-(trifluoromethyl)phenyl)-2,3-dihydro-1H-inden-2-yl)methyl)benzoic acid], the Ki [1] was greater than 10000 nM, the EC50 [2] was greater than 10000 nM and the Ki [3] was 7090 nM.
`COc1cc(-c2cccc3c2CC(Cc2ccc(C(=O)O)cc2)C3=O)cc(C(F)(F)F)c1` (stereo not drawn) [Example 8, 4-((4-(3-Methoxy-5-(trifluoromethyl)phenyl)-1-oxo-2,3-dihydro-1H-inden-2-yl)methyl)benzoic acid] showed an EC50 [4] of 11 nM, a Ki [1] of 21 nM and an EC50 [2] of 1050 nM. It also gave a Ki [3] of 889 nM.
Work on `O=C(O)c1ccc(CC2CCc3c(cccc3-c3cccc(C(F)(F)F)c3)C2=O)s1` (stereo not drawn) [Example 14, 5-((1-Oxo-5-(3-(trifluoromethyl)phenyl)-1,2,3,4-tetrahydronaphthalen-2-yl)methyl)thiophene-2-carboxylic acid] yielded an EC50 [4] of 79 nM, a Ki [1] of 1390 nM and an EC50 [2] of 341 nM. The Ki [3] was 1070 nM.
